These results are taken from patent US9487516B2, “Antibacterial oxadiazolone derivatives” (priority 2013, dated 2016).

What all share (assay): Bacterial growth minimal inhibitory concentration (microdilution, cation-adjusted Mueller-Hinton Broth)
What all share (type): cell-based

Assay [1] relates to Acinetobacter baumanii T6474. Particulars: Acinetobacter baumannii, multiply-resistant strain (in particular quinolone-resistant). Here is the method:
(§1) Minimal Inhibitory Concentrations (MICs; mg/L) were determined in cation-adjusted MuellerHinton Broth by a microdilution method following the description given in “Methods for Dilution Antimicrobial Susceptibility Tests for Bacteria that Grow Aerobically”, Approved standard, 7th ed., Clinical and Laboratory Standards Institute (CLSI) Document M7-A7, Wayne, Pa., USA, 2006.
(§2) All Example compounds were tested against several Gram positive and Gram negative bacteria. […] Staphylococcus aureus A798, Enterococcus faecium A949 and Acinetobacter baumanii T6474 are multiply-resistant strains (in particular quinolone-resistant), while Moraxella catarrhalis A894 is a quinolone-sensitive strain and Staphylococcus aureus ATCC29213 is a methicillin-sensitive and quinolone-sensitive strain.

For assay [2], the system named is Enterococcus faecium A949. The conditions noted are these: multiply-resistant strain (in particular quinolone-resistant), read-out: MIC for E. faecium A949. The procedure:
as §1, §2

The test system of assay [3] is Moraxella catarrhalis A894. Particulars: quinolone-sensitive strain. The procedure: as §1, §2
Assay [4] has as its system Staphylococcus aureus A798. The conditions noted are these: multiply-resistant strain (in particular quinolone-resistant), read-out: MIC for S. aureus A798. The procedure:
as §1, §2

Assay [5] relates to Staphylococcus aureus ATCC29213. The conditions noted are these: methicillin-sensitive and quinolone-sensitive strain, read-out: MIC for S. aureus ATCC29213. Here is the method:
as §1, §2

Each structure is given as a SMILES string. Values after ≈ are worked out from the molar mass of the structure shown.

Take `O=c1oc(CCCN[C@@H]2Cn3c(=O)cnc4ccc(F)c2c43)nn1-c1ccc2c(c1)OCCO2` [Example 24, (S)-6-{3-[4-(2,3-dihydro-benzo[1,4]dioxin-6-yl)-5-oxo-4,5-dihydro-[1,3,4]oxadiazol-2-yl]-propylamino}-7-fluoro-5,6-dihydro-pyrrolo[1,2,3-de]quinoxalin-3-one]: the MIC (commonly the lowest concentration that inhibits growth of the organism) in assay [1] was 4 µg/mL (≈ 8.59 µM); in assay [2], over 8 µg/mL; in assay [3] it was 4 µg/mL (≈ 8.59 µM); in assay [4], 8 µg/mL (≈ 17.2 µM); in assay [5] it was 2 µg/mL (≈ 4.3 µM).

Turning to `O=c1oc(CCCN[C@H]2Cn3c(=O)cnc4ccc(F)c2c43)nn1-c1ccc2c(c1)OCCO2` [Example 25, (R)-6-{3-[4-(2,3-dihydro-benzo[1,4]dioxin-6-yl)-5-oxo-4,5-dihydro-[1,3,4]oxadiazol-2-yl]-propylamino}-7-fluoro-5,6-dihydro-pyrrolo[1,2,3-de]quinoxalin-3-one], the minimal inhibitory concentration (MIC) came out at 8 µg/mL (≈ 17.2 µM) in assay [1]; 8 µg/mL (≈ 17.2 µM) in assay [2]; 8 µg/mL (≈ 17.2 µM) in assay [3]; 4 µg/mL (≈ 8.59 µM) in assay [4]; 2 µg/mL (≈ 4.3 µM) in assay [5].

Consider `CCCc1ccc(-n2nc(CCCN[C@H]3Cn4c(=O)ccc5ccc(F)c3c54)oc2=O)cc1` [Example 26, (R)-9-fluoro-1-{3-[5-oxo-4-(4-propyl-phenyl)-4,5-dihydro-[1,3,4]oxadiazol-2-yl]-propylamino}-1,2-dihydro-pyrrolo[3,2,1-ij]quinolin-4-one], for which the MIC in assay [1] amounted to 2 µg/mL (≈ 4.46 µM); in assay [2], 0.5 µg/mL (≈ 1.11 µM); in assay [3], 0.5 µg/mL (≈ 1.11 µM); in assay [4] it was 0.5 µg/mL (≈ 1.11 µM); in assay [5], 0.125 µg/mL (≈ 0.279 µM).

As for `CCCc1ccc(-n2nc(CCCN[C@@H]3Cn4c(=O)cnc5ccc(F)c3c54)oc2=O)cc1` [Example 27, (S)-7-fluoro-6-{3-[5-oxo-4-(4-propyl-phenyl)-4,5-dihydro-[1,3,4]oxadiazol-2-yl]-propylamino}-5,6-dihydro-pyrrolo[1,2,3-de]quinoxalin-3-one], the MIC in assay [1] turned out to be 4 µg/mL (≈ 8.9 µM); in assay [2] it was 2 µg/mL (≈ 4.45 µM); in assay [3] it was 4 µg/mL (≈ 8.9 µM); in assay [4], 2 µg/mL (≈ 4.45 µM); in assay [5], 0.5 µg/mL (≈ 1.11 µM).

Take `CCOc1ccc(-n2nc(CCCN[C@@H]3Cn4c(=O)ccc5ccc(F)c3c54)oc2=O)cc1` [Example 28, (S)-1-{3-[4-(4-ethoxy-phenyl)-5-oxo-4,5-dihydro-[1,3,4]oxadiazol-2-yl]-propylamino}-9-fluoro-1,2-dihydro-pyrrolo[3,2,1-ij]quinolin-4-one]: the MIC in assay [1] is 4 µg/mL (≈ 8.88 µM); in assay [2], over 8 µg/mL; in assay [3], 8 µg/mL (≈ 17.8 µM); in assay [4], 4 µg/mL (≈ 8.88 µM); in assay [5], 2 µg/mL (≈ 4.44 µM).

For `CCOc1ccc(-n2nc(CCCN[C@H]3Cn4c(=O)ccc5ccc(F)c3c54)oc2=O)cc1` [Example 29, (R)-1-{3-[4-(4-ethoxy-phenyl)-5-oxo-4,5-dihydro-[1,3,4]oxadiazol-2-yl]-propylamino}-9-fluoro-1,2-dihydro-pyrrolo[3,2,1-ij]quinolin-4-one], the MIC is 4 µg/mL (≈ 8.88 µM) in assay [1]; over 8 µg/mL in assay [2]; 8 µg/mL (≈ 17.8 µM) in assay [3]; 4 µg/mL (≈ 8.88 µM) in assay [4]; 2 µg/mL (≈ 4.44 µM) in assay [5].

Take `CCOc1ccc(-n2nc(CCCN[C@@H]3Cn4c(=O)cnc5ccc(F)c3c54)oc2=O)cc1` [Example 30, (S)-6-{3-[4-(4-ethoxy-phenyl)-5-oxo-4,5-dihydro-[1,3,4]oxadiazol-2-yl]-propylamino}-7-fluoro-5,6-dihydro-pyrrolo[1,2,3-de]quinoxalin-3-one]: the MIC in assay [1] was 4 µg/mL (≈ 8.86 µM); in assay [2], 8 µg/mL (≈ 17.7 µM); in assay [3] it was 8 µg/mL (≈ 17.7 µM); in assay [4] it was 4 µg/mL (≈ 8.86 µM); in assay [5] it was 1 µg/mL (≈ 2.22 µM).

Regarding `CCOc1ccc(-n2nc(CCCN[C@H]3Cn4c(=O)cnc5ccc(F)c3c54)oc2=O)cc1` [Example 31, (R)-6-{3-[4-(4-ethoxy-phenyl)-5-oxo-4,5-dihydro-[1,3,4]oxadiazol-2-yl]-propylamino}-7-fluoro-5,6-dihydro-pyrrolo[1,2,3-de]quinoxalin-3-one], the MIC in assay [1] is 8 µg/mL (≈ 17.7 µM); in assay [2] it was over 8 µg/mL; in assay [3] it was 8 µg/mL (≈ 17.7 µM); in assay [4] it was 4 µg/mL (≈ 8.86 µM); in assay [5], 1 µg/mL (≈ 2.22 µM).

Take `CCSc1ccc(-n2nc(CCCN[C@H]3Cn4c(=O)ccc5ccc(F)c3c54)oc2=O)cc1` [Example 32, (R)-1-{3-[4-(4-ethylsulfanyl-phenyl)-5-oxo-4,5-dihydro-[1,3,4]oxadiazol-2-yl]-propylamino}-9-fluoro-1,2-dihydro-pyrrolo[3,2,1-ij]quinolin-4-one]: the minimum inhibitory concentration (MIC) in assay [1] is 0.5 µg/mL (≈ 1.07 µM); in assay [2], 0.5 µg/mL (≈ 1.07 µM); in assay [3], 0.5 µg/mL (≈ 1.07 µM); in assay [4], 0.25 µg/mL (≈ 0.536 µM); in assay [5], 0.063 µg/mL (≈ 0.135 µM).

For the compound `CCSc1ccc(-n2nc(CCCN[C@@H]3Cn4c(=O)cnc5ccc(F)c3c54)oc2=O)cc1` [Example 33, (S)-6-{3-[4-(4-ethylsulfanyl-phenyl)-5-oxo-4,5-dihydro-[1,3,4]oxadiazol-2-yl]-propylamino}-7-fluoro-5,6-dihydro-pyrrolo[1,2,3-de]quinoxalin-3-one], the MIC in assay [1] was 0.25 µg/mL (≈ 0.535 µM); in assay [2] it was 0.5 µg/mL (≈ 1.07 µM); in assay [3], 0.5 µg/mL (≈ 1.07 µM); in assay [4], 0.25 µg/mL (≈ 0.535 µM); in assay [5] it was 0.031 µg/mL (≈ 0.0663 µM).

Turning to `O=C1COc2ccc(-n3nc(CCCN[C@@H]4Cn5c(=O)ccc6cccc4c65)oc3=O)nc2N1` [Example 34, (S)-1-{3-[5-oxo-4-(3-oxo-3,4-dihydro-2H-pyrido[3,2-b][1,4]oxazin-6-yl)-4,5-dihydro-[1,3,4]oxadiazol-2-yl]-propylamino}-1,2-dihydro-pyrrolo[3,2,1-ij]quinolin-4-one], the MIC was found to be 4 µg/mL (≈ 8.69 µM) in assay [1]; 8 µg/mL (≈ 17.4 µM) in assay [2]; 1 µg/mL (≈ 2.17 µM) in assay [3]; 4 µg/mL (≈ 8.69 µM) in assay [4]; 2 µg/mL (≈ 4.34 µM) in assay [5].

As for `O=C1COc2ccc(-n3nc(CCCN[C@@H]4Cn5c(=O)cnc6cccc4c65)oc3=O)nc2N1` [Example 35, (S)-6-{3-[5-oxo-4-(3-oxo-3,4-dihydro-2H-pyrido[3,2-b][1,4]oxazin-6-yl)-4,5-dihydro-[1,3,4]oxadiazol-2-yl]-propylamino}-5,6-dihydro-pyrrolo[1,2,3-de]quinoxalin-3-one], the MIC was determined as 2 µg/mL (≈ 4.33 µM) in assay [1]; 4 µg/mL (≈ 8.67 µM) in assay [2]; 0.5 µg/mL (≈ 1.08 µM) in assay [3]; 1 µg/mL (≈ 2.17 µM) in assay [4]; 0.5 µg/mL (≈ 1.08 µM) in assay [5].

On to `O=C1COc2ccc(-n3nc(CCCN[C@H]4Cn5c(=O)cnc6cccc4c65)oc3=O)nc2N1` [Example 36, (R)-6-{3-[5-oxo-4-(3-oxo-3,4-dihydro-2H-pyrido[3,2-b][1,4]oxazin-6-yl)-4,5-dihydro-[1,3,4]oxadiazol-2-yl]-propylamino}-5,6-dihydro-pyrrolo[1,2,3-de]quinoxalin-3-one], for which the MIC in assay [1] is 4 µg/mL (≈ 8.67 µM); in assay [2], 8 µg/mL (≈ 17.3 µM); in assay [3], 2 µg/mL (≈ 4.33 µM); in assay [4], 4 µg/mL (≈ 8.67 µM); in assay [5] it was 4 µg/mL (≈ 8.67 µM).

For the compound `O=C1COc2ccc(-n3nc(CCCN[C@@H]4Cn5c(=O)ccc6ncc(F)c4c65)oc3=O)nc2N1` [Example 37, (S)-3-fluoro-4-{3-[5-oxo-4-(3-oxo-3,4-dihydro-2H-pyrido[3,2-b][1,4]oxazin-6-yl)-4,5-dihydro-[1,3,4]oxadiazol-2-yl]-propylamino}-4,5-dihydro-pyrrolo[3,2,1-de][1,5]naphthyridin-7-one], the MIC in assay [1] worked out at 2 µg/mL (≈ 4.17 µM); in assay [2], 4 µg/mL (≈ 8.34 µM); in assay [3] it was 0.125 µg/mL (≈ 0.261 µM); in assay [4] it was 0.25 µg/mL (≈ 0.521 µM); in assay [5], 0.25 µg/mL (≈ 0.521 µM).

As to `O=C1COc2ccc(-n3nc(CCCN[C@H]4Cn5c(=O)ccc6ncc(F)c4c65)oc3=O)nc2N1` [Example 38, (R)-3-fluoro-4-{3-[5-oxo-4-(3-oxo-3,4-dihydro-2H-pyrido[3,2-b][1,4]oxazin-6-yl)-4,5-dihydro-[1,3,4]oxadiazol-2-yl]-propylamino}-4,5-dihydro-pyrrolo[3,2,1-de][1,5]naphthyridin-7-one], the minimal inhibitory concentration (MIC) came out at 2 µg/mL (≈ 4.17 µM) in assay [1]; 4 µg/mL (≈ 8.34 µM) in assay [2]; 0.5 µg/mL (≈ 1.04 µM) in assay [3]; 0.5 µg/mL (≈ 1.04 µM) in assay [4]; 0.5 µg/mL (≈ 1.04 µM) in assay [5].

For `COc1ccc2ccc(=O)n3c2c1[C@H](NCCCc1nn(-c2ccc4c(n2)NC(=O)CO4)c(=O)o1)C3` [Example 39, (S)-9-methoxy-1-{3-[5-oxo-4-(3-oxo-3,4-dihydro-2H-pyrido[3,2-b][1,4]oxazin-6-yl)-4,5-dihydro-[1,3,4]oxadiazol-2-yl]-propylamino}-1,2-dihydro-pyrrolo[3,2,1-ij]quinolin-4-one], the MIC in assay [1] was 1 µg/mL (≈ 2.04 µM); in assay [2], 8 µg/mL (≈ 16.3 µM); in assay [3] it was 1 µg/mL (≈ 2.04 µM); in assay [4] it was 2 µg/mL (≈ 4.08 µM); in assay [5], 1 µg/mL (≈ 2.04 µM).

For the compound `Cc1ccc2ccc(=O)n3c2c1[C@H](NCCCc1nn(-c2ccc4c(n2)NC(=O)CO4)c(=O)o1)C3` [Example 40, (S)-9-methyl-1-{3-[5-oxo-4-(3-oxo-3,4-dihydro-2H-pyrido[3,2-b][1,4]oxazin-6-yl)-4,5-dihydro-[1,3,4]oxadiazol-2-yl]-propylamino}-1,2-dihydro-pyrrolo[3,2,1-ij]quinolin-4-one], the MIC in assay [1] is 2 µg/mL (≈ 4.22 µM); in assay [2], 2 µg/mL (≈ 4.22 µM); in assay [3], 0.5 µg/mL (≈ 1.05 µM); in assay [4], 2 µg/mL (≈ 4.22 µM); in assay [5] it was 1 µg/mL (≈ 2.11 µM).
